Experimental data from US9518052B2, “Pyrazolopyridines and pyrazolopyrimidines” (Pfizer Inc., priority 2014, dated 2016).
Counter-ions that a name gives are not always drawn.

How the values were obtained:
Type in all cases: biochemical
Settings in all cases: Caliper assay at 1 mM ATP
TYK2 = TYK2 (Homo sapiens (Human), UniProt P29597); assay: JAK Caliper Enzyme Assay at 1 mM ATP (TYK2)
JAK2 = JAK2 (Homo sapiens (Human), UniProt O60674); assay: JAK Caliper Enzyme Assay at 1 mM ATP (JAK2)
JAK3 = JAK3 (Homo sapiens (Human), UniProt P52333); assay: JAK Caliper Enzyme Assay at 1 mM ATP (JAK3)
JAK3, sequence (P52333 whole entry, species assumed): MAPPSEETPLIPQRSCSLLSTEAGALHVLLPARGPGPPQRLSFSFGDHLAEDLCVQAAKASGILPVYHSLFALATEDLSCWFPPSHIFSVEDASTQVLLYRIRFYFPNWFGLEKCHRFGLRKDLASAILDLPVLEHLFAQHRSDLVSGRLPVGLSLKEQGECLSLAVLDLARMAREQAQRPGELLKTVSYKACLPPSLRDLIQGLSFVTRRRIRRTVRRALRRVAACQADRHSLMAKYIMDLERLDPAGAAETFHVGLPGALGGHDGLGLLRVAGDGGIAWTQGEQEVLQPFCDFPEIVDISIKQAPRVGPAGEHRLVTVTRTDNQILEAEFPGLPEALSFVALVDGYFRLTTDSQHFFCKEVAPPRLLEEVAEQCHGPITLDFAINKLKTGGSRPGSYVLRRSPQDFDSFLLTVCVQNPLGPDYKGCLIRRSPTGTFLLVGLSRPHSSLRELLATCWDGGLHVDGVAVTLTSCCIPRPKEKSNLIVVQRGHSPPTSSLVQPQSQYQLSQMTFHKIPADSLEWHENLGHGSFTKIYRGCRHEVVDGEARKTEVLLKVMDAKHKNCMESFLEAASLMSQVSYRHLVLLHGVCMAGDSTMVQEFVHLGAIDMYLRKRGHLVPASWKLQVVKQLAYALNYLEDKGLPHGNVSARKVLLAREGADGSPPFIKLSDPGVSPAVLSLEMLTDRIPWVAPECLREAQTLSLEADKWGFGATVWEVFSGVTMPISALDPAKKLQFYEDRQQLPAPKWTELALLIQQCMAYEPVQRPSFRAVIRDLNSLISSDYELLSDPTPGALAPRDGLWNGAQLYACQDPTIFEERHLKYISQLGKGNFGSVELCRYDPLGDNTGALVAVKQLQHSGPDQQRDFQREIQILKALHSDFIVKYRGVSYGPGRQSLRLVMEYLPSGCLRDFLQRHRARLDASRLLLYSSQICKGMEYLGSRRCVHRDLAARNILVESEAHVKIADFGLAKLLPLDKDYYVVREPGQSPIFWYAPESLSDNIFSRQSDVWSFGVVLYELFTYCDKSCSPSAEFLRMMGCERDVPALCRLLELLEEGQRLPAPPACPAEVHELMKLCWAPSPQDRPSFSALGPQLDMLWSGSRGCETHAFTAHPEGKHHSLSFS

JAK1 = JAK1 (Homo sapiens (Human), UniProt P23458); assay: JAK Caliper Enzyme Assay at 1 mM ATP (JAK1)
JAK1, sequence (P23458 whole entry, species assumed): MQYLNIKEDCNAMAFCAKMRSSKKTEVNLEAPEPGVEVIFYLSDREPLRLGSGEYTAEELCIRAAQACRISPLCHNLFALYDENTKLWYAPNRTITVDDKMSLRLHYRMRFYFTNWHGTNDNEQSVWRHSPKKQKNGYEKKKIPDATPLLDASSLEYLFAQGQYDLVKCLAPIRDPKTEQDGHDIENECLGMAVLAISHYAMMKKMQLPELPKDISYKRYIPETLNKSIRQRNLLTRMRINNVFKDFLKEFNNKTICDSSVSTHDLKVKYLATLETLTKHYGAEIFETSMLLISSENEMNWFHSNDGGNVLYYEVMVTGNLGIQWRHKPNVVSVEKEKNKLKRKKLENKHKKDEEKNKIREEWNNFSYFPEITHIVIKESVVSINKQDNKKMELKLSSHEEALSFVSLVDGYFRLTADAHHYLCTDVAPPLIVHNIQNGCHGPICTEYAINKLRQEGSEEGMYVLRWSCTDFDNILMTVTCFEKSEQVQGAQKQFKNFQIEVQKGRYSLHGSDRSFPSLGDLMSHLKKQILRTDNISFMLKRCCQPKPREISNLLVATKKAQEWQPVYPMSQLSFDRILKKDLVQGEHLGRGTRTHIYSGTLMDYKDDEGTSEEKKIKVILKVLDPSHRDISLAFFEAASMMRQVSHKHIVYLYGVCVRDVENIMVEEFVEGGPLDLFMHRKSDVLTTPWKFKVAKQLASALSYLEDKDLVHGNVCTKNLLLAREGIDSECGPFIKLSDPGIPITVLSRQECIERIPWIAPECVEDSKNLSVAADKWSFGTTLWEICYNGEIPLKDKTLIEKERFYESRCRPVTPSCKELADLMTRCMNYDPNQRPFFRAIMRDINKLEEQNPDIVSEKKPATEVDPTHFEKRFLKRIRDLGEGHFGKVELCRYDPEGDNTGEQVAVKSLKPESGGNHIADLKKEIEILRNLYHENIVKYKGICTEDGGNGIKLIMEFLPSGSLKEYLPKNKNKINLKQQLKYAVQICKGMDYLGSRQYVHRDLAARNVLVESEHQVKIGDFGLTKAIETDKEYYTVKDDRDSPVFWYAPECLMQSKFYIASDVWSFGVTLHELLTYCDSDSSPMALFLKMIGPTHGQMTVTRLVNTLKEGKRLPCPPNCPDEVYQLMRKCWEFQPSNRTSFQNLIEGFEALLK

JAK2, sequence (O60674 whole entry, species assumed): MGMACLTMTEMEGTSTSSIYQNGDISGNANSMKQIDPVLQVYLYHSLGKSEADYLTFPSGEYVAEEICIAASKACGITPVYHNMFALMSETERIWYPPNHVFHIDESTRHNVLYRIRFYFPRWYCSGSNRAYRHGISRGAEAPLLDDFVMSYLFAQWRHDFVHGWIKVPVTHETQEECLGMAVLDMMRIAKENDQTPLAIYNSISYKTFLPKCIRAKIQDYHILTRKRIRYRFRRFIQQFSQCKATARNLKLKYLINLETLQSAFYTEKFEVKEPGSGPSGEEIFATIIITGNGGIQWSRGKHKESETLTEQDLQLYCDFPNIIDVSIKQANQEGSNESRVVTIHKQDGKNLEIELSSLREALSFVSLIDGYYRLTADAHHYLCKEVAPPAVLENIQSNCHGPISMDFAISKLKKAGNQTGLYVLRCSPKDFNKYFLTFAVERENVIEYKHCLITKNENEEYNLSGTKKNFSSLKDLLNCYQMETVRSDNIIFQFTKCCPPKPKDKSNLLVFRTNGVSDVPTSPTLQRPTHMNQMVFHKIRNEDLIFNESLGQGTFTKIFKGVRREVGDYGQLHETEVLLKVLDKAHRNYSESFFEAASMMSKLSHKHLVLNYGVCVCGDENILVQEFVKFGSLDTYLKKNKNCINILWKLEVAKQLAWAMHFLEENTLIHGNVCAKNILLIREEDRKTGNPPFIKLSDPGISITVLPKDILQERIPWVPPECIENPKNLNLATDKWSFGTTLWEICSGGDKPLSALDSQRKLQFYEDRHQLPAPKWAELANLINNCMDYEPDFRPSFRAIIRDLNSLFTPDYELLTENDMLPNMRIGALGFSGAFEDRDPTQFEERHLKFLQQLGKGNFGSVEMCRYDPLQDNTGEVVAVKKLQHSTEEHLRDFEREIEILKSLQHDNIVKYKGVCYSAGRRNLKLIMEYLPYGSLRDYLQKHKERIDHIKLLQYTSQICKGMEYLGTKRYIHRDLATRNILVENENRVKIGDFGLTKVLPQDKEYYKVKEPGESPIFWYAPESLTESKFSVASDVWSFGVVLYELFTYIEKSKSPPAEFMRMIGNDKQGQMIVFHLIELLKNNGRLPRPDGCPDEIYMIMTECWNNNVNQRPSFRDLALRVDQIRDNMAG
TYK2, sequence (P29597 whole entry, species assumed): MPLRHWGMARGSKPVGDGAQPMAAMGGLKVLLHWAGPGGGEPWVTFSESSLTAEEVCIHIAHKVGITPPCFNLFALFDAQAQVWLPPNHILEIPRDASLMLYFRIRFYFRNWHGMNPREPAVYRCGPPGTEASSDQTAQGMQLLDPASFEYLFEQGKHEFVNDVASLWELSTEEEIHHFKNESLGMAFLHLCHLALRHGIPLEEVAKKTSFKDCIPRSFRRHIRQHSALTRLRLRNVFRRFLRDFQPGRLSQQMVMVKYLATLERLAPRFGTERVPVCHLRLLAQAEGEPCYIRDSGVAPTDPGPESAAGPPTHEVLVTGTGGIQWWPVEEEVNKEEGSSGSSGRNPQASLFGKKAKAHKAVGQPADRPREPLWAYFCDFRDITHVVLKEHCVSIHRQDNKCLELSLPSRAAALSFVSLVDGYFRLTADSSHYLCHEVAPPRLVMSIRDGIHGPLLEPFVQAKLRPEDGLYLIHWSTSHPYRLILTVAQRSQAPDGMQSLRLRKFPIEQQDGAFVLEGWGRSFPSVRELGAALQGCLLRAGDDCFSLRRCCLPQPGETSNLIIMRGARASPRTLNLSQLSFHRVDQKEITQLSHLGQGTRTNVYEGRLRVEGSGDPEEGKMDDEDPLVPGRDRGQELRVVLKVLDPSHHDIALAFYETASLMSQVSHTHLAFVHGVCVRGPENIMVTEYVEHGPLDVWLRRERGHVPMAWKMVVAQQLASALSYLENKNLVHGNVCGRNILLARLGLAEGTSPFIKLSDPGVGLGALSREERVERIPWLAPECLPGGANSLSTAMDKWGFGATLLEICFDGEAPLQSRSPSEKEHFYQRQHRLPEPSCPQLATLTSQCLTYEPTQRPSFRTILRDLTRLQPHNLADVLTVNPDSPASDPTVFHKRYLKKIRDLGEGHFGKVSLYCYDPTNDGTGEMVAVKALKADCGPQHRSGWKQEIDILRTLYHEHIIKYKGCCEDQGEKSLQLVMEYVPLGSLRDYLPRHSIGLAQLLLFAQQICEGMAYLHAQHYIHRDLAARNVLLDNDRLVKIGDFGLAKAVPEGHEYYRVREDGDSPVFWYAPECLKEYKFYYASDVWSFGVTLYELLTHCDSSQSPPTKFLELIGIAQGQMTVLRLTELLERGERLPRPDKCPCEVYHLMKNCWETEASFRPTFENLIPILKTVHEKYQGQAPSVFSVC

IC50 (TYK2)	IC50 (JAK2)	IC50 (JAK3)	IC50 (JAK1)	Compound
226 nM	20.8 nM	66.9 nM	3.5 nM	CNC(=O)c1n[nH]c2cc(-c3cc(F)c(O)cc3CC(F)(F)F)nc(NCc3nccnc3N(C)S(C)(=O)=O)c12 [Example 51, 6-[5-fluoro-4-hydroxy-2-(2,2,2-trifluoroethyl)phenyl]-N-methyl-4-[({3-[methyl(methylsulfonyl)amino]pyrazin-2-yl}methyl)amino]-1H-pyrazolo[4,3-c]pyridine-3-carboxamide]
6.5 nM	9.2 nM	49 nM	1.7 nM	CCc1cc(O)c(F)cc1-c1cc2[nH]nc(C(=O)NC)c2c(NCc2cc(F)ccc2N(C)S(C)(=O)=O)n1 [Example 7, 6-(2-ethyl-5-fluoro-4-hydroxyphenyl)-4-({5-fluoro-2-[methyl(methyl-sulfonyl)amino]benzyl}amino)-N-methyl-1H-pyrazolo[4,3-c]pyridine-3-carboxamide]
5.7 nM	7.5 nM	33.8 nM	1.7 nM	CCc1cc(O)c(F)cc1-c1cc2[nH]nc(C(=O)NC)c2c(NCc2c(F)cccc2N(C)S(C)(=O)=O)n1 [Example 8, 6-(2-ethyl-5-fluoro-4-hydroxyphenyl)-4-({2-fluoro-6-[methyl(methyl-sulfonyl)amino]benzyl}amino)-N-methyl-1H-pyrazolo[4,3-c]pyridine-3-carboxamide]
82.1 nM	4.5 nM	9.5 nM	3.3 nM	CCc1cc(O)ccc1-c1cc2[nH]ncc2c(N2CCc3c(cccc3NS(C)(=O)=O)C2)n1 [Example 123, N-{2-[6-(2-ethyl-4-hydroxyphenyl)-1H-pyrazolo[4,3-c]pyridin-4-yl]-1,2,3,4-tetrahydroisoquinolin-5-yl}methanesulfonamide formate]
2490 nM	87.8 nM	133 nM	30.6 nM	CCN(c1ncc(C)cc1CNc1nc(-c2cc(F)c(O)cc2CC(F)(F)F)cc2[nH]nc(C(N)=O)c12)S(C)(=O)=O [Example 87, 4-[({2-[ethyl(methylsulfonyl)amino]-5-methylpyridin-3-yl}methyl)amino]-6-[5-fluoro-4-hydroxy-2-(2,2,2-trifluoroethyl)phenyl]-1H-pyrazolo[4,3-c]pyridine-3-carboxamide]
56.5 nM	29.2 nM	115 nM	6.6 nM	CNC(=O)c1n[nH]c2cc(-c3cc(F)c(O)cc3CC(F)(F)F)nc(NCc3ccccc3N(C)S(=O)(=O)CCOC)c12 [Example 60, 6-[5-fluoro-4-hydroxy-2-(2,2,2-trifluoroethyl)phenyl]-4-[(2-{[(2-methoxyethyl)sulfonyl](methyl)amino}benzyl)amino]-N-methyl-1H-pyrazolo[4,3-c]pyridine-3-carboxamide]
316 nM	113 nM	475 nM	29.6 nM	Cc1ccc(NC(=O)c2n[nH]c3cc(-c4cc(F)c(O)cc4CC(F)(F)F)nc(NCc4ccccc4N(C)S(C)(=O)=O)c23)cn1 [Example 76, 6-[5-Fluoro-4-hydroxy-2-(2,2,2-trifluoroethyl)phenyl]-4-({2-[methyl(methylsulfonyl)amino]-benzyl}amino)-N-(6-methylpyridin-3-yl)-1H-pyrazolo[4,3-c]pyridine-3-carboxamide]
229 nM	10.1 nM	16.8 nM	4.3 nM	CCc1cc(O)ccc1-c1cc2[nH]ncc2c(N2CC(C)(O)C2)n1 [Example 115, 1-[6-(2-ethyl-4-hydroxyphenyl)-1H-pyrazolo[4,3-c]pyridin-4-yl]-3-methylazetidin-3-ol formate]

More lines, now with the values behind:

Compound	IC50 (TYK2)	IC50 (JAK2)	IC50 (JAK3)	IC50 (JAK1)
CNC(=O)c1n[nH]c2cc(-c3cc(F)c(O)cc3CC(F)(F)F)nc(NCC(C)C)c12 [Example 16, 6-[5-fluoro-4-hydroxy-2-(2,2,2-trifluoroethyl)phenyl]-N-methyl-4-[(2-methylpropyl)amino]-1H-pyrazolo[4,3-c]pyridine-3-carboxamide]	66 nM	23 nM	131 nM	6.3 nM
CCc1cc(O)c(F)cc1-c1cc2[nH]nc(-c3nnc(C)[nH]3)c2c(NCc2ccccc2N(C)S(C)(=O)=O)n1 [Example 165, N-[2-({[6-(2-Ethyl-5-fluoro-4-hydroxyphenyl)-3-(5-methyl-4H-1,2,4-triazol-3-yl)-1H-pyrazolo[4,3-c]pyridin-4-yl]amino}methyl)phenyl]-N-methylmethanesulfonamide]	14.6 nM	16.9 nM	78 nM	3.5 nM
CCc1cc(O)c(F)cc1-c1cc2[nH]nc(C(=O)NC)c2c(NCC(C)C)n1 [Example 5, 6-(2-ethyl-5-fluoro-4-hydroxyphenyl)-N-methyl-4-[(2-methylpropyl)amino]-1H-pyrazolo[4,3-c]pyridine-3-carboxamide]	7 nM	7.5 nM	31.9 nM	2.1 nM
CN(c1ccc(Cl)cc1CNc1nc(-c2cc(F)c(O)cc2CC(F)(F)F)cc2[nH]nc(C(N)=O)c12)S(C)(=O)=O [Example 89, 4-({5-chloro-2-[methyl(methylsulfonyl)amino]benzyl}amino)-6-[5-fluoro-4-hydroxy-2-(2,2,2-trifluoroethyl)phenyl]-1H-pyrazolo[4,3-c]pyridine-3-carboxamide]	917 nM	57.1 nM	212 nM	14.6 nM
CCCN(Cc1cc(C)ccc1N(C)S(C)(=O)=O)c1nc(-c2cc(F)c(O)cc2CC)cc2[nH]ncc12 [Example 144, N-[2-({[6-(2-ethyl-5-fluoro-4-hydroxyphenyl)-1H-pyrazolo[4,3-c]pyridin-4-yl](propyl)amino}-methyl)-4-methylphenyl]-N-methylmethanesulfonamide]	8730 nM	70.7 nM	186 nM	55.3 nM
CCc1cc(O)c(F)cc1-c1cc2[nH]ncc2c(NCc2c(F)cccc2N(C)S(C)(=O)=O)n1 [Example 134, N-[2-({[6-(2-ethyl-5-fluoro-4-hydroxyphenyl)-1H-pyrazolo[4,3-c]pyridin-4-yl]amino}methyl)-3-fluorophenyl]-N-methylmethanesulfonamide hydrochloride]	20.3 nM	1.7 nM	7.6 nM	< 0.5 nM
CNC(=O)c1n[nH]c2cc(-c3cc(F)c(O)cc3CC(F)(F)F)nc(NCc3cc(C)ccc3N(C)S(C)(=O)=O)c12 [Example 11, 6-[5-fluoro-4-hydroxy-2-(2,2,2-trifluoroethyl)phenyl]-N-methyl-4-({5-methyl-2-[methyl(methyl-sulfonyl)amino]benzyl}amino)-1H-pyrazolo[4,3-c]pyridine-3-carboxamide]	229 nM	36.9 nM	207 nM	8.7 nM
CCN(c1ccc(O)cc1CNc1nc(-c2cc(F)c(O)cc2CC(F)(F)F)cc2[nH]nc(C(=O)NC)c12)S(C)(=O)=O [Example 34, 4-({2-[ethyl(methyl-sulfonyl)amino]-5-hydroxybenzyl}amino)-6-[5-fluoro-4-hydroxy-2-(2,2,2-trifluoroethyl)phenyl]-N-methyl-1H-pyrazolo[4,3-c]pyridine-3-carboxamide]	24.6 nM	27.8 nM	98.4 nM	5.1 nM
